Test results: patent US20170333390A1, “PHYTOCHEMICAL COMPOSITIONS INCLUDING SESAMIN FOR ANTI-INFLAMMATORY, ANTI-CYTOKINE STORM, AND OTHER USES” (CHIANG MAI UNIVERSITY, priority 2009, published 2017)

Test system: IL-1 released by LPS induced peripheral blood mononuclear cells (PBMCs)
Assay: Quantity of IL-1 released by LPS induced PBMCs (ELISA)
Assay type: cell-based
Conditions: LPS 20 ng/ml
Protocol: Experiments were conducted to evaluate the effect of particular phytochemical compositions provided by the present disclosure on quantity of IL-1 released by specified cells found within a body of a living organism. Cells used for the experiment described in this example are LPS induced peripheral blood mononuclear cells (PBMCs). It is understood by a person of ordinary skill in the art that the PBMCs may be substituted for other immune cells found within the body. It is also understood by a person having ordinary skill in the art that other inducing substances or chemicals besides LPS, for example viral antigens, may also be used for inducing the PBMCs.
To conduct the experiments of example two, PBMCs were isolated and prepared using isolation techniques or methods known to a person of ordinary skill in the art. An exemplary method or technique is the differential density gradient centrifugation technique, the steps or process steps of which are known to a person of ordinary skill in the art. In addition, LPS can be obtained from a commercial source, for example Sigma-Aldrich Co.
The PBMCs are cultured in 10% fetal calf serum in RPMI1640 medium. Seven cultures of PBMCs, i.e. culture 1 to culture 7, were prepared. The contents of each of cultures 1 to 7 are as follows: • (i) Culture 1: First control culture. Includes a predetermined volume of PBMCs (1×10^5 PBMCs/culture); • (ii) Culture 2: Second control culture. […]
After a predetermined time period, quantity of IL-1 in each of cultures 1 to 7 was quantified using the ELISA technique (e.g., Biotrak Easy ELISA Aersham). The quantity of IL-1 detected by the ELISA technique in each of cultures 1 to 7 reflects the quantity of IL-1 released by the PBMCs of that culture.

c1cc2c(cc1[C@H]1OC[C@H]3[C@@H]1CO[C@@H]3c1ccc3c(c1)OCO3)OCO2 [sesamin]
decrease in quantity of IL-1 (0.1 uM sesamin (culture 3), compared to control culture 1, 24 hours): approximately 5% | decrease in quantity of IL-1 (0.5 uM sesamin (culture 4), compared to control culture 1, 24 hours): approximately 5% | decrease in quantity of IL-1 (10 uM sesamin (culture 7), compared to control culture 2, 24 hours): approximately 35%
